Source: the supplement of paper PMC10307832

Assays:
Test in all cases: relative viability (nuclei count vs DMSO), 5 days (fraction); higher = more cells survive
NCI-H838 = tested on: NCI-H838
Procedure, shortened: (§1)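 For relative viability, nuclei counts in treated wells were divided by those in vehicle wells. Lung cancer cell lines had been pin-tool dosed in 1536-well plates the day after seeding and cultured for 5 days, then fixed and stained in one step (final 0.05% Triton X-100, 1% formaldehyde, 1 ug/ml Hoechst) and imaged at 4×. Doses were one drug alone or a fixed anchor-drug dose plus five library-drug doses (not always all listed) in √10 steps, and values are duplicate-plate medians.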

HCC-78 = tested on: HCC-78
Procedure, shortened: as §1

NCI-H650 = tested on: NCI-H650
Procedure, shortened: as §1

EPLC-272H = tested on: EPLC-272H
Procedure, shortened: as §1

NCI-H1993 = tested on: NCI-H1993
Procedure, shortened: as §1

COR-L23 = tested on: COR-L23
Procedure, shortened: as §1

NCI-H2085 = tested on: NCI-H2085
Procedure, shortened: as §1

SW 1573 = tested on: SW 1573
Procedure, shortened: as §1

NCI-H358 = tested on: NCI-H358
Procedure, shortened: as §1

PC-14 = tested on: PC-14
Procedure, shortened: as §1

NCI-H2009 = tested on: NCI-H2009
Procedure, shortened: as §1

NCI-H460 = tested on: NCI-H460
Procedure, shortened: as §1

UMC-11 = tested on: UMC-11
Procedure, shortened: as §1

LU99A = tested on: LU99A
Procedure, shortened: as §1

NCI-H1915 = tested on: NCI-H1915
Procedure, shortened: as §1

LC-2-ad = tested on: LC-2-ad
Procedure, shortened: as §1

NCI-H2347 = tested on: NCI-H2347
Procedure, shortened: as §1

ABC-1 = tested on: ABC-1
Procedure, shortened: as §1

NCI-H2126 = tested on: NCI-H2126
Procedure, shortened: as §1

HCC-15 = tested on: HCC-15
Procedure, shortened: as §1

NCI-H1651 = tested on: NCI-H1651
Procedure, shortened: as §1

HARA = tested on: HARA
Procedure, shortened: as §1

## COc1cc(N2CCC(C(N)=O)CC2)ccc1Nc1nc(N)c(Cl)c(Nc2ccccc2S(=O)(=O)C(C)C)n1 [HG-5-88-01] + CS(=O)(=O)N1CCN(Cc2cc3nc(-c4cccc5[nH]ncc45)nc(N4CCOCC4)c3s2)CC1 [Pictilisib] (partner 1 µM)
NCI-H838; first compound 0.04 µM
  relative viability: 0.312
NCI-H838; first compound 0.1265 µM
  relative viability: 0.503
NCI-H838; first compound 0.4 µM
  relative viability: 0.337
NCI-H838; first compound 1.265 µM
  relative viability: 0.393
NCI-H838; first compound 4 µM
  relative viability: 0.383
HCC-78; first compound 0.04 µM
  relative viability: 0.204
HCC-78; first compound 0.1265 µM
  relative viability: 0.19
HCC-78; first compound 0.4 µM
  relative viability: 0.153
HCC-78; first compound 1.265 µM
  relative viability: 0.167
HCC-78; first compound 4 µM
  relative viability: 0.157
NCI-H650; first compound 0.04 µM
  relative viability: 0.88
NCI-H650; first compound 0.1265 µM
  relative viability: 0.925
NCI-H650; first compound 0.4 µM
  relative viability: 0.864
NCI-H650; first compound 1.265 µM
  relative viability: 0.743
NCI-H650; first compound 4 µM
  relative viability: 0.685
EPLC-272H; first compound 0.04 µM
  relative viability: 0.302
EPLC-272H; first compound 0.1265 µM
  relative viability: 0.262
EPLC-272H; first compound 0.4 µM
  relative viability: 0.29
EPLC-272H; first compound 1.265 µM
  relative viability: 0.219
EPLC-272H; first compound 4 µM
  relative viability: 0.0916
NCI-H1993; first compound 0.04 µM
  relative viability: 0.689
NCI-H1993; first compound 0.1265 µM
  relative viability: 0.829
NCI-H1993; first compound 0.4 µM
  relative viability: 0.606
NCI-H1993; first compound 1.265 µM
  relative viability: 1.04
NCI-H1993; first compound 4 µM
  relative viability: 0.873
COR-L23; first compound 0.04 µM
  relative viability: 0.629
COR-L23; first compound 0.1265 µM
  relative viability: 0.725
COR-L23; first compound 0.4 µM
  relative viability: 0.608
COR-L23; first compound 1.265 µM
  relative viability: 0.371
COR-L23; first compound 4 µM
  relative viability: 0.353
NCI-H2085; first compound 0.04 µM
  relative viability: 0.478
NCI-H2085; first compound 0.1265 µM
  relative viability: 0.457
NCI-H2085; first compound 0.4 µM
  relative viability: 0.525
NCI-H2085; first compound 1.265 µM
  relative viability: 0.414
NCI-H2085; first compound 4 µM
  relative viability: 0.442
SW 1573; first compound 0.04 µM
  relative viability: 0.422
SW 1573; first compound 0.1265 µM
  relative viability: 0.563
SW 1573; first compound 0.4 µM
  relative viability: 0.445
SW 1573; first compound 1.265 µM
  relative viability: 0.392
SW 1573; first compound 4 µM
  relative viability: 0.489
NCI-H358; first compound 0.04 µM
  relative viability: 0.292
NCI-H358; first compound 0.1265 µM
  relative viability: 0.384
NCI-H358; first compound 0.4 µM
  relative viability: 0.302
NCI-H358; first compound 1.265 µM
  relative viability: 0.225
NCI-H358; first compound 4 µM
  relative viability: 0.301
PC-14; first compound 0.04 µM
  relative viability: 0.79
PC-14; first compound 0.1265 µM
  relative viability: 0.862
PC-14; first compound 0.4 µM
  relative viability: 0.658
PC-14; first compound 1.265 µM
  relative viability: 0.168
PC-14; first compound 4 µM
  relative viability: 0.108
NCI-H2009; first compound 0.04 µM
  relative viability: 0.771
NCI-H2009; first compound 0.1265 µM
  relative viability: 0.882
NCI-H2009; first compound 0.4 µM
  relative viability: 0.693
NCI-H2009; first compound 1.265 µM
  relative viability: 0.793
NCI-H2009; first compound 4 µM
  relative viability: 0.631
NCI-H460; first compound 0.04 µM
  relative viability: 0.379
NCI-H460; first compound 0.1265 µM
  relative viability: 0.296
NCI-H460; first compound 0.4 µM
  relative viability: 0.395
NCI-H460; first compound 1.265 µM
  relative viability: 0.332
NCI-H460; first compound 4 µM
  relative viability: 0.277
UMC-11; first compound 0.04 µM
  relative viability: 0.506
UMC-11; first compound 0.1265 µM
  relative viability: 0.937
UMC-11; first compound 0.4 µM
  relative viability: 0.692
UMC-11; first compound 1.265 µM
  relative viability: 0.815
UMC-11; first compound 4 µM
  relative viability: 0.49
LU99A; first compound 0.04 µM
  relative viability: 0.31
LU99A; first compound 0.1265 µM
  relative viability: 0.315
LU99A; first compound 0.4 µM
  relative viability: 0.303
LU99A; first compound 1.265 µM
  relative viability: 0.318
LU99A; first compound 4 µM
  relative viability: 0.215
NCI-H1915; first compound 0.04 µM
  relative viability: 0.92
NCI-H1915; first compound 0.1265 µM
  relative viability: 0.973
NCI-H1915; first compound 0.4 µM
  relative viability: 0.95
NCI-H1915; first compound 1.265 µM
  relative viability: 1.13
NCI-H1915; first compound 4 µM
  relative viability: 0.806
LC-2-ad; first compound 0.04 µM
  relative viability: 0.429
LC-2-ad; first compound 0.1265 µM
  relative viability: 0.491
LC-2-ad; first compound 0.4 µM
  relative viability: 0.366
LC-2-ad; first compound 1.265 µM
  relative viability: 0.448
LC-2-ad; first compound 4 µM
  relative viability: 0.334
NCI-H2347; first compound 0.04 µM
  relative viability: 0.603
NCI-H2347; first compound 0.1265 µM
  relative viability: 0.645
NCI-H2347; first compound 0.4 µM
  relative viability: 0.683
NCI-H2347; first compound 4 µM
  relative viability: 0.471
ABC-1; first compound 0.04 µM
  relative viability: 0.614
ABC-1; first compound 0.1265 µM
  relative viability: 0.829
ABC-1; first compound 0.4 µM
  relative viability: 0.679
ABC-1; first compound 1.265 µM
  relative viability: 0.681
ABC-1; first compound 4 µM
  relative viability: 0.522
NCI-H2126; first compound 0.04 µM
  relative viability: 0.419
NCI-H2126; first compound 0.1265 µM
  relative viability: 0.435
NCI-H2126; first compound 0.4 µM
  relative viability: 0.513
NCI-H2126; first compound 1.265 µM
  relative viability: 0.501
NCI-H2126; first compound 4 µM
  relative viability: 0.38
HCC-15; first compound 0.04 µM
  relative viability: 0.844
HCC-15; first compound 0.1265 µM
  relative viability: 0.831
HCC-15; first compound 0.4 µM
  relative viability: 0.741
HCC-15; first compound 1.265 µM
  relative viability: 0.798
HCC-15; first compound 4 µM
  relative viability: 0.515
NCI-H1651; first compound 0.04 µM
  relative viability: 0.51
NCI-H1651; first compound 0.1265 µM
  relative viability: 0.609
NCI-H1651; first compound 0.4 µM
  relative viability: 0.559
NCI-H1651; first compound 1.265 µM
  relative viability: 0.646
NCI-H1651; first compound 4 µM
  relative viability: 0.646
HARA; first compound 0.04 µM
  relative viability: 0.438
HARA; first compound 0.1265 µM
  relative viability: 0.358
HARA; first compound 0.4 µM
  relative viability: 0.414
HARA; first compound 1.265 µM
  relative viability: 0.411
HARA; first compound 4 µM
  relative viability: 0.301
